In test [1] the test system is hypoxia-induced genes in Hep3B cells. Nature of the test: RNA sequencing of Hep3B cells. The format is cell-based, human. The settings on record: 5 μM, 1% O2, 24 hours. How it is done: RNA sequencing (RNA-seq) was performed on 3 biological replicates of Hep3B cells exposed for 24 hours to vehicle at 20% O2, vehicle at 1% O2, or 5 μM 32-134D at 1% O2. […] Overall, 32-134D inhibited the expression of 4,689 genes, of which the 3,326 hypoxia-induced genes represented 71% of the total.
RNA was extracted using TRIzol Reagent. Quantitative real-time PCR was conducted using SYBR Green PCR Master Mix and reactions were run using a Bio-Rad thermal cycler. Primer sequences and reagent sources are listed in Supplemental Table 5. The mRNA expression of target genes was normalized to the expression of 18S rRNA and the fold change (FC) was calculated based on the threshold cycle (Ct) as FC = 2^–Δ(ΔCt), where ΔCt = Cttarget gene – Ct18S rRNA and Δ(ΔCt) = ΔCttreatment – ΔCtcontrol. For RNA-seq, total RNA was isolated and treated with DNase (Qiagen). […] An automated data analysis pipeline run in the Genialis platform consisted of the following: Sequence quality checks were performed on raw and trimmed reads with FastQC. Bbduk was used to trim adapters and filter out poor quality reads. Trimmed reads were then mapped to the STAR index (ENSEMBL 100) reference genome using the STAR ([93]) aligner. Gene expression levels were quantified with featureCounts ([94]), and differential gene expression analyses were performed with DESeq2 ([95]). […]

The test system of test [2] is HIF transcriptional activity. The experiment in a line: HIF-dependent luciferase reporter assay (FLuc/RLuc ratio) in Hep3B-c1 cells. The note with it: Homo sapiens, 1% O2, 24 hours, read-out: IC50, inhibition of HIF-dependent reporter gene expression. The format is cell-based. From the text:
The NCI CellMiner database contains expression data for over 25,000 mRNAs in 60 human cancer cell lines that have been exposed to more than 20,000 chemical compounds ([49]). We searched CellMiner for a compound that induced changes in gene expression that were highly correlated with those induced by acriflavine, but which was structurally unrelated to acriflavine. Compounds that satisfied the above criteria were identified and subsequently analyzed in Hep3B-c1 cells ([50]), which are stably transfected with HIF-dependent reporter plasmid p2.1, in which firefly luciferase (FLuc) coding sequences are located downstream from a hypoxia-response element (HRE) and a basal SV40 promoter; and control reporter pSVR, in which Renilla luciferase (RLuc) coding sequences are downstream of the basal SV40 promoter only (Figure 1A). The FLuc/RLuc ratio in cells exposed to 1% O2 for 24 hours is a specific measure of HIF-dependent gene expression.
Figure 1 Identification of HIF inhibitors. (A) Hep3B-c1 cells were stably transfected with firefly luciferase (FLuc) reporter p2.1, which contains a hypoxia-response element (HRE), and Renilla luciferase (RLuc) reporter pSVR. (B) Hep3B-c1 cells were incubated with vehicle (Veh; 0.1% DMSO; blue bars) or 10 μM 32-134D (red bars) at 20% O2 (n = 6) or 1% O2 (n = 12) for 24 hours. Cell lysates were assayed for Fluc/Rluc activity (mean ± SEM); *P < 0.05 versus vehicle (χ^2 test). (C) Chemical structures and IC50 values for HIF inhibitors. (D and E) Hep3B cells were exposed to 20% O2 with vehicle, or 1% O2 with vehicle (blue bar), 32-134D (red bars), 33-063 (green bars), or PT2385 (brown bars) for 24 hours and CA9 (D) and EPO (E) mRNAs were quantified by RT-qPCR. […] (F) Hep3B cells were exposed to 20% or 1% O2 in the presence of vehicle or 1% O2 in the presence of 5 μM 32-134D (n = 3 each) for 24 hours. […]
Hep3B-c1 cells ([50]) were seeded on 24-well plates. […] FLuc/RLuc ratios were determined using the Dual Luciferase Reporter Assay System (Supplemental Table 6) and the VICTOR Nivo plate reader (PerkinElmer).

pIC50: −log10 of the molar value.

In the case of `Brc1ccc2c(-c3csc(-c4c[nH]c5c(Br)cccc45)n3)c[nH]c2c1` [Compound 32-134D], the “total number of genes whose expression was inhibited” value in test [1] is listed as 4,689 genes. For the same molecule, in test [1] (of 3,849 hypoxia-induced mRNAs), the “number of hypoxia-induced genes whose expression was inhibited” value was 3,326 genes. Moreover, in test [2], the pIC50 (commonly the IC50 on a negative log10 scale, so that one unit is a factor of ten) was 5.60.

For the origin of these results see publication PMC9057582, “HIF inhibitor 32-134D eradicates murine hepatocellular carcinoma in combination with anti-PD1 therapy” (The Journal of Clinical Investigation, 2022).
